Measured values from patent US12139488B2, “Pyrido[3,2-d]pyrimidine compounds uses thereof for treating a proliferative disease” (Universite de Montreal, priority 2021, dated 2024).
pIC50: −log10 of the molar value.

Columns and labels:
[1] = tested on: pERK in SW480 cells (KRAS G12D); test: Phospho-ERK inhibition (AlphaLISA), SW480; assay type: cell-based, human; settings: SW480 cells; for SW480 pERK Ymin %: Ymin in brackets; for pIC50: class symbol before the bracket
Protocol: (§1) All cancer cell lines (A375, A101D, A2058, RKO, HT29 SK-MEL 30, IPC298, HepG2, HCT-116, Lovo, SWV620, SW480, NCI-H358, NCI-H2122, Calu-6, NCIH2087, NCIH1755, NCIH1666 and Mewo) were obtained from ATCC and cultured in RPMI-1640 medium (Gibco) supplemented with 5% heat inactivated fetal bovine serum (FBS, Wisent) at 37° C. under 5% CO2. Cells were maintained in T175 flasks (Greiner). They were passaged by removing the culture medium, washing once in 10 mL of room temperature Phosphate Buffered Saline (PBS; Wisent) and incubating at 37° C. with 2 mL of 0.05% Trypsin (Thermo-Fisher). Trypsin was then inactivated by adding complete growth medium and the cells were then replated in a T175 culture dish at the appropriate dilution. All cell lines were routinely tested for mycoplasma contamination. Tissue type and mutational status of each cell line can be found in Table B.
(§2) AlphaLISA® SureFire® Ultra™ p-ERK 1/2 (Thr202/Tyr204) analysis was conducted on cells plated in 100 μL of complete RPMI-1640 growth medium in 96-well flat-bottomed transparent dishes (Costar) at a density indicated in Table C. Cells were maintained overnight at 37° C. under 5% CO2 before treatment with compounds' dilution series for one hour. The cell density in cells/cm^2 corresponds to cell number divided by the area of one well of a 96-well plate ([…]).
(§3) In a dilution series 100 μL/well of test substance dilution prepared in complete RPMI-1640 growth media was added to the cells. The dilution series is selected so that ten concentrations cover a range from 10 μM to 0.33 nM. If necessary the initial concentration of 10 μM is increased to 100 μM or lowered to 1 μM (as in the case of A375 and H1666 cells, which are generally more sensitive to the compounds) and further dilution is carried out accordingly. The final concentration of DMSO in the assay is set at 0.5%.
(§4) After treatment, media was removed and cells were lysed in 50 μL of 1× AlphaScreen Ultra Lysis Buffer (Perkin Elmer). The AlphaLISA® SureFire® Ultra™ p-ERK 1/2 (Thr202/Tyr2O4) (PerkinElmer) reactions were performed with 5 μL of cell lysate according to the manufacturer's specifications in 384-well proxyplates (Perkin Elmer) followed by overnight incubation of the reactions at room temperature in a humidified chamber. After completion of the reactions, the signals were recorded on an EnVision plate reader (Perkin Elmer) using built in AlphaLISA® settings.
(§5) The effect of each compound dilution on the pERK signal was expressed in % inhibition and calculated as follows. An internal 100% inhibition control ([…] trametinib, cat #HY-10999; MedChem Express; CAS #871700-17-3) was included in each plate and used as a measure of pERK background. First, the value obtained for trametinib was subtracted from each data point. The average of DMSO (vehicle) controls (set as 0% inhibition) was established and used to calculate % inhibition: % inhibition=100*(1-((pERK signalcompound)/(pERK signalDMSO)))
(§6) The ability of each compound to inhibit pERK signal was expressed as an IC50 value obtained by plotting the inhibition values for each data point of a dilution series and fitting the obtained curves using a log(agonist) versus response-variable slope (four parameters) function using GraphPadPrism (V7.0) or Dotmatics Screening Ultra platform.
(§7) When present, paradoxical pERK induction is inferred from the negative % inhibition values observed in the pERK IC50 curves of a compound.

[2] = tested on: pERK in HCT-116 cells (KRAS G13D); test: Phospho-ERK inhibition (AlphaLISA SureFire Ultra p-ERK 1/2), HCT116; assay type: cell-based, human; settings: HCT116 cells; for HCT116 pERK Ymin %: Ymin in brackets
Protocol: as §1, §2, §3, §4, §5, §6, §7

[3] = target: CRAF (Homo sapiens, UniProt P04049); test: CRAF kinase activity assay (ADP-Glo); assay type: biochemical; settings: CRAF; read-out: Kinase IC50 (nM), CRAF biochemical kinase assay
Protocol: Compound preparation: solid samples of each substances in 1 dram vials were suspended in DMSO (Fisher Scientific) at a stock concentration of 20 mM. Stocks were kept at −20° C. and protected from light.
In vitro enzymatic reactions were used for evaluating compounds intrinsic activity against BRAF, CRAF and ARAF. […] Separate reactions were performed with the MEK1 substrate and ATP as a blank control.
For compound treatment, 5 μL/well of test substance solution are placed in a 384-well proxyplate (Perkin Elmer) and mixed with 2× concentrated kinase reactions. The dilution series is selected so that nine concentrations cover a range from 100 nM to 0.01 nM. […] The final concentration of DMSO in the assay is set at 0.05%.
BRAF and CRAF kinase reactions were carried out for a total of 2 hours at 30° C. and then stopped by ½ dilution in ADP-Glo Reagent (cat #V9102; Promega; part V912C). Reactions were then incubated for 1h at room temperature before addition of one volume of Kinase Detection Reagent (cat #V9102; Promega; part V917A). Plates were then equilibrated at room temperature for 30 minutes before detection of luminescence on a Synergy Neo2 plate reader (Biotek). The effect of each compound dilution on BRAF and CRAF kinase activity was expressed as % inhibition and calculated as follows.
IC50 values were obtained by plotting the kinase inhibition values and fitting the dose-activity curves using a log(agonist) versus response-variable slope (four parameters) function using either GraphPadPrism (V7.0) or Dotmatics Screening Ultra platform.

[4] = class symbol before the bracket

CRAF, sequence (P04049 whole entry, looked up): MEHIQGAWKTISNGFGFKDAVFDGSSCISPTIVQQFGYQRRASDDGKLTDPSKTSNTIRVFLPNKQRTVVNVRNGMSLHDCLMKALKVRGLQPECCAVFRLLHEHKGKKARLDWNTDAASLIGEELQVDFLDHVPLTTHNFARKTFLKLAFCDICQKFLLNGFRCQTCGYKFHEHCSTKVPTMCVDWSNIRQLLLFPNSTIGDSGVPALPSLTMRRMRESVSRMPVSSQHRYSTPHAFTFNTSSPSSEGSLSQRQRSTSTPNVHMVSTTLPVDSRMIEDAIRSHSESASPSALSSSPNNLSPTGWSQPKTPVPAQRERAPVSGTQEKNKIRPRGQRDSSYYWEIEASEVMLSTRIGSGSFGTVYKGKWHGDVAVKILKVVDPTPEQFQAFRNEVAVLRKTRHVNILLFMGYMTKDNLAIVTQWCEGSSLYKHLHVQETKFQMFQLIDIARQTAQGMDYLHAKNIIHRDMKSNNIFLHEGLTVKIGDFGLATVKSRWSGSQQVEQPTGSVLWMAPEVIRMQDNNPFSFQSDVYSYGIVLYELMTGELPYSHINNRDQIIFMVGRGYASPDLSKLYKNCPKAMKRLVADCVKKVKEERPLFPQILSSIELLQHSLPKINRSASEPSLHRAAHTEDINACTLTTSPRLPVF

SMILES | SW480 pERK Ymin % [1] [%] | pIC50 [1] | HCT116 pERK Ymin % [2] [%] | pIC50 [2, 4] | pIC50 [2] | HCT116 pERK % Ymin (lowest value of the IC50 curve) ([2]; Ymin above −20% = minimal or no paradoxical activation) [%] | IC50 [3] [nM] | pIC50 ([2]; class symbol)
O=C(c1cn(-c2ccc3ncnc(Nc4c(F)ccc(NS(=O)(=O)c5ccccc5Cl)c4F)c3n2)c2ccccc12)N1CCOCC1 [Example 109] | −6.4 | > 6.30 | −1.7 | > 6.30 | – | – | – | –
O=S1(=O)CCN(c2cccc3c2ncn3-c2ccc3ncnc(Nc4c(F)ccc(NS(=O)(=O)c5cccc(Cl)c5Cl)c4F)c3n2)CC1 [Example 628] | – | – | – | – | 6.00 to 6.30 | 0 | < 10 | –
COc1ccc(S(=O)(=O)Nc2ccc(F)c(Nc3ncnc4ccc(-n5cnc6nccnc65)nc34)c2F)c(C)c1 [Ex 60] | 10 | 5.00 to 6.00 | −10 | 5.00 to 6.00 | – | – | – | –
COc1ccc(S(=O)(=O)Nc2ccc(F)c(Nc3ncnc4ccc(-c5cnc(OC)nc5)nc34)c2F)c(C)c1 [Ex 57] | -9 | 5.00 to 6.00 | -8 | 5.00 to 6.00 | – | – | – | –
COc1ccc(S(=O)(=O)Nc2ccc(F)c(Nc3ncnc4ccc(-c5cn[nH]c5)nc34)c2F)c(C)c1 [Ex 64] | 16 | 5.00 to 6.00 | 4 | 5.00 to 6.00 | – | – | – | –
N#Cc1cccc(-c2ccc3ncnc(Nc4c(F)ccc(NS(=O)(=O)c5ccccc5Cl)c4F)c3n2)c1 [Ex 77] | 2 | 5.00 to 6.00 | −8 | 5.00 to 6.00 | – | – | – | –
COc1ccc(S(=O)(=O)Nc2ccc(F)c(Nc3ncnc4ccc(-c5cnc6ccccc6c5)nc34)c2F)c(C)c1 [Ex 61] | 3 | 5.00 to 6.00 | −8 | 5.00 to 6.00 | – | – | – | –
NC(=O)c1ccc(-c2ccc3ncnc(Nc4c(F)ccc(NS(=O)(=O)c5ccccc5Cl)c4F)c3n2)cc1 [Example 81] | 15 | 5.00 to 6.00 | −4 | 5.00 to 6.00 | – | – | – | –
COc1ccc(S(=O)(=O)Nc2ccc(F)c(Nc3ncnc4ccc(-c5cnn(C)c5)nc34)c2F)c(C)c1 [Ex 65] | 14 | 6.00 to 6.30 | −7 | 4.52 to 5.00 | – | – | – | –
COc1ccc(S(=O)(=O)Nc2ccc(F)c(Nc3ncnc4ccc(-c5cccc(O)c5)nc34)c2F)c(C)c1 [Ex 72] | −7 | 5.00 to 6.00 | 1 | 5.00 to 6.00 | – | – | – | –
Cc1c(Cl)cccc1S(=O)(=O)Nc1ccc(F)c(Nc2ncnc3ccc(-n4nc(C(=O)N5CCNCC5)c5ccccc54)nc23)c1F [Example 127] | −3.8 | > 6.30 | −1.2 | > 6.30 | – | – | – | –
COc1ccc(S(=O)(=O)Nc2ccc(F)c(Nc3ncnc4ccc(-c5cccc(CO)c5)nc34)c2F)c(C)c1 [Ex 74] | 3.3 | 5.00 to 6.00 | 1 | 5.00 to 6.00 | – | – | – | –
COc1ccc(S(=O)(=O)Nc2ccc(F)c(Nc3ncnc4ccc(-c5ccsc5)nc34)c2F)c(C)c1 [Ex 58] | 2 | 5.00 to 6.00 | −1 | 4.52 to 5.00 | – | – | – | –
N#Cc1ccc(-c2ccc3ncnc(Nc4c(F)ccc(NS(=O)(=O)c5ccccc5Cl)c4F)c3n2)cc1 [Ex 78] | 1 | 5.00 to 6.00 | −9 | 5.00 to 6.00 | – | – | – | –
COc1ccc(S(=O)(=O)Nc2ccc(F)c(Nc3ncnc4ccc(-n5cnc6c([N+](=O)[O-])cccc65)nc34)c2F)c(C)c1 [Example 70] | 5 | 5.00 to 6.00 | −3 | 5.00 to 6.00 | – | – | – | –
COc1ccc(S(=O)(=O)Nc2ccc(F)c(Nc3ncnc4ccc(-n5cnc(C)c5C)nc34)c2F)cc1 [Ex 32] | 2 | 5.00 to 6.00 | 17 | 5.00 to 6.00 | – | – | – | –
COc1ccc(S(=O)(=O)Nc2ccc(F)c(Nc3ncnc4ccc(-n5ccnc5)nc34)c2F)cc1 [Ex 33] | 0 | 5.00 to 6.00 | 5 | 5.00 to 6.00 | – | – | – | –
COc1ccc(S(=O)(=O)Nc2ccc(F)c(Nc3ncnc4ccc(-c5cncnc5)nc34)c2F)c(C)c1 [Ex 56] | 7 | 6.00 to 6.30 | −9 | 5.00 to 6.00 | – | – | – | –
COc1ccc(S(=O)(=O)Nc2ccc(F)c(Nc3ncnc4ccc(-n5cnc6c(NC(C)=O)cccc65)nc34)c2F)c(C)c1 [Ex 79] | 9.4 | 6.00 to 6.30 | 1.5 | 6.00 to 6.30 | – | – | – | –
COc1ccc(S(=O)(=O)Nc2ccc(F)c(Nc3ncnc4ccc(-c5ccncc5)nc34)c2F)c(C)c1 [Ex 63] | 10 | > 6.30 | −2.1 | 5.00 to 6.00 | – | – | – | –
NC(=O)c1cccc(-c2ccc3ncnc(Nc4c(F)ccc(NS(=O)(=O)c5ccccc5Cl)c4F)c3n2)c1 [Example 80] | 10 | 5.00 to 6.00 | 11 | 5.00 to 6.00 | – | – | – | –
COc1ccc(S(=O)(=O)Nc2ccc(F)c(Nc3ncnc4ccc(-n5cc(C(N)=O)c6ccccc65)nc34)c2F)c(C)c1 [Example 69] | 3 | 5.00 to 6.00 | −1 | 5.00 to 6.00 | – | – | – | –
COc1ccc(S(=O)(=O)Nc2ccc(F)c(Nc3ncnc4ccc(-c5ccc(OC)nc5)nc34)c2F)c(C)c1 [Example 71] | 8 | 5.00 to 6.00 | −4 | 5.00 to 6.00 | – | – | – | –
Cc1c([N+](=O)[O-])ncn1-c1ccc2ncnc(Nc3c(F)ccc(NS(=O)(=O)c4ccccc4Cl)c3F)c2n1 [Ex 82] | 2 | 5.00 to 6.00 | −5 | 5.00 to 6.00 | – | – | – | –
O=[N+]([O-])c1cn(-c2ccc3ncnc(Nc4c(F)ccc(NS(=O)(=O)c5cccc(Cl)c5Cl)c4F)c3n2)c2ccccc12 [Example 506] | – | – | – | – | – | – | – | 5.00 to 6.00
Nc1cccc2c1nnn2-c1ccc2ncnc(Nc3c(F)ccc(NS(=O)(=O)c4ccccc4Cl)c3F)c2n1 [Example 92] | 18 | > 6.30 | −4.6 | > 6.30 | – | – | – | –
COCCOc1nccc2c1ncn2-c1ccc2ncnc(Nc3c(F)ccc(NS(=O)(=O)c4cccc(Cl)c4Cl)c3F)c2n1 [Example 522] | – | – | – | – | – | – | – | 6.00 to 6.30
